Consider 10 compounds from ChEMBL document CHEMBL5726224, “Aminoester derivatives” (2017).

Usually IC50 stands for the concentration that inhibits the measured activity by half. Usually Ki stands for a measure of affinity in units of concentration, obtained from inhibition or displacement.

Bounds are passed on as bounds.

Sequence of Muscarinic acetylcholine receptor M3 (P20309 whole entry): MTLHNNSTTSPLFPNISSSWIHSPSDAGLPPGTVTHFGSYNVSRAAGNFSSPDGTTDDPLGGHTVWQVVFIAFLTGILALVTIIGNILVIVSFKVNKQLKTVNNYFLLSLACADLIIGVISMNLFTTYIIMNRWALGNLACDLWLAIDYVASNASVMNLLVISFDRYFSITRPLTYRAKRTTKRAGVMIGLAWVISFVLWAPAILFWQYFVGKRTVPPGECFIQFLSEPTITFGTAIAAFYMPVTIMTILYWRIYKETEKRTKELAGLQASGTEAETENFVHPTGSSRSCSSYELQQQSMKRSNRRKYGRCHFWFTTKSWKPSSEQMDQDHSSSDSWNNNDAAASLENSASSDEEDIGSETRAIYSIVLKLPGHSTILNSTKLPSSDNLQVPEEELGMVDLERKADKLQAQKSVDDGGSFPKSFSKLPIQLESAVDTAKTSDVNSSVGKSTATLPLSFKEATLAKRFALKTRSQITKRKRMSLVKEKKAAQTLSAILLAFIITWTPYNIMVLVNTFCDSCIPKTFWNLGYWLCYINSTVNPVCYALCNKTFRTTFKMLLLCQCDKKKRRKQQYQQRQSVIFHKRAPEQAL

The first assay has as its target Muscarinic acetylcholine receptor M3 (Homo sapiens, UniProt P20309). In words: The assay is carried out in 96-well polypropylene plates in a volume of 250 μl. […] The final assay concentration of DMSO is 0.5% (v/v). The plates are sealed and incubated for 2 h at room temperature on an orbital shaker (slow speed). Membranes are harvested onto 96-well unifilter GF/C filter plates pre-treated with 0.5% polyethyleneimine (v/v), using a filter manifold, washed four times with 200 μl of assay buffer. The plates are dried before addition of 50 μl of microscint-0, sealed then read in a Trilux Microbeta scintillation counter. IC50 values are determined from competition curves using a non-linear curve fitting program. Ki values are calculated from IC50 values by the Cheng and Prusoff equation.
As for `COc1ccc([C@H](Cc2c(Cl)c[n+]([O-])cc2Cl)OC(=O)c2ccc(CNC(CO)(C(=O)OC[C@@H]3CCN(C)C3)c3ccccc3)s2)cc1OC` (stereo partly specified), the 50% inhibitory concentration (IC50) is under 1 nM.
Turning to `COc1ccc([C@H](Cc2c(Cl)c[n+]([O-])cc2Cl)OC(=O)c2ccc(CNC(C(=O)OC[C@H]3CCN(C)C3)c3ccccc3)s2)cc1OC` (stereo partly specified), the inhibition constant Ki is 0.59 nM.
As for `COc1ccc([C@H](Cc2c(Cl)c[n+]([O-])cc2Cl)OC(=O)c2ccc(CNC(CO)(C(=O)OC[C@H]3CCN(C)C3)c3ccccc3)s2)cc1OC` (stereo partly specified), the IC50 is under 1 nM.

For a further assay, the target named is 3',5'-cyclic-AMP phosphodiesterase 4B (Homo sapiens, UniProt Q07343). The assay can be described thus: HTRF Assay: PDE4B2 activity is detected using the LANCE Ultra cAMP homogeneous time resolved fluorescence resonance energy transfer (TR-FRET) assay from Perkin Elmer. The assay is based on the competition between the europium (Eu) chelate-labeled cAMP tracer and sample cAMP for binding sites on cAMP-specific monoclonal antibodies (mAb) labelled with the ULight¿ dye. The assay is carried out in 384-well low volume plates in a volume of 10 μl. Human recombinant PDE4B2 (80 pM) is incubated for 2 h with 3 nM cAMP in buffer containing 1×HBSS, 5 mM HEPES, 3 mM MgCl2, 0.1% BSA, pH 7.4 with or without test compounds. The enzymatic reactions are efficiently stopped by the addition of 500 μM IBMX present in the combined Stop/Detection buffer containing europium (Eu) chelate-labeled cAMP tracer and cAMP-specific monoclonal antibodies (mAb) labelled with the ULight¿ dye. […] IC50 values are determined from competition curves using a non-linear curve fitting program. In general terms: Time-resolved FRET reads energy transfer from a long-lived donor to a nearby acceptor.
Sequence of 3',5'-cyclic-AMP phosphodiesterase 4B (Q07343 whole entry): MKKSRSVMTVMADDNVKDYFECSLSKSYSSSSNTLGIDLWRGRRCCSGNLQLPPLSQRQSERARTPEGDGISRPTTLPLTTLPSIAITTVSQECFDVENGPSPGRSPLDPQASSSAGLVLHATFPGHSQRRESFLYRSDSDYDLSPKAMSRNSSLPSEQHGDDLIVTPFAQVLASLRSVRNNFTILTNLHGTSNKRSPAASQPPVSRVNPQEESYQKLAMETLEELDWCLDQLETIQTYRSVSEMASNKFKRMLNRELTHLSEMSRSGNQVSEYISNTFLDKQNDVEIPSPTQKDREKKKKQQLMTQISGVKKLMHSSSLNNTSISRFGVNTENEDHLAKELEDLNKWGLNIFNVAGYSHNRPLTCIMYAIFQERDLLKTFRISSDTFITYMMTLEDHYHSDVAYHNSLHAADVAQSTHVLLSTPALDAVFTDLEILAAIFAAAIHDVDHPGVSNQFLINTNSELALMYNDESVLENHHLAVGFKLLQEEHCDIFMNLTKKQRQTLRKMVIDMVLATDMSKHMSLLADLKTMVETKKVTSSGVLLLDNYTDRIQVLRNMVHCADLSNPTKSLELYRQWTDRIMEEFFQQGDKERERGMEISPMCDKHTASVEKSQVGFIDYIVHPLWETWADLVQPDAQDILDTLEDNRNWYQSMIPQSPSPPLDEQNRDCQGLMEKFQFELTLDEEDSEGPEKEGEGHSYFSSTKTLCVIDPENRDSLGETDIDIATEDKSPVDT
Turning to `COc1ccc([C@H](Cc2c(Cl)c[n+]([O-])cc2Cl)OC(=O)c2ccc(CNC(C(=O)OCC3CCN(C)CC3)c3ccccc3F)s2)cc1OC` (stereo partly specified), the half-inhibitory concentration (IC50) is under 1 nM.
For `COc1ccc([C@H](Cc2c(Cl)c[n+]([O-])cc2Cl)OC(=O)c2ccc(CNC(C)(C(=O)OCC3CCN(C)CC3)c3ccccc3)s2)cc1OC` (stereo partly specified), the IC50 was under 1 nM.
In the case of `COc1ccc([C@H](Cc2c(Cl)c[n+]([O-])cc2Cl)OC(=O)c2ccc(CNC(C(=O)OC[C@H]3CCCN(C)C3)c3ccccc3)s2)cc1OC` (stereo partly specified), the half-inhibitory concentration (IC50) is under 1 nM.
For `CCOc1cc(C(Cc2c(Cl)c[n+]([O-])cc2Cl)OC(=O)c2ccc(CNC(C(=O)OCC3CCN(C)CC3)c3ccccc3)s2)ccc1OC` (stereo unspecified), the IC50 is under 1 nM.
Turning to `COc1ccc([C@H](Cc2c(Cl)c[n+]([O-])cc2Cl)OC(=O)c2ccc(CNC(CO)(C(=O)OC[C@H]3CCN(C)C3)c3ccccc3)s2)cc1OC` (stereo partly specified), the 50% inhibitory concentration (IC50) is under 1 nM.
The same measure, in the same setting: under `COc1ccc(C(Cc2c(Cl)c[n+]([O-])cc2Cl)OC(=O)c2ccc(CNC(C(=O)OCC3CCN(C)CC3)c3ccccc3)s2)cc1OCC1CC1` (stereo unspecified) stands under 1 nM; under `COc1ccc([C@H](Cc2c(Cl)c[n+]([O-])cc2Cl)OC(=O)c2ccc(CNC(C(=O)OC[C@H]3CCCCN3C)c3ccccc3)s2)cc1OC` (stereo partly specified), under 1 nM; under `COc1ccc([C@H](Cc2c(Cl)c[n+]([O-])cc2Cl)OC(=O)c2ccc(CNC(C(=O)OCC3CCN(C)CC3)c3cccc(O)c3)s2)cc1OC` (stereo partly specified), under 1 nM.
